# Source: patent publication US9493833B1, “Methods for preventing induced synthesis of proteasomes in human cells” (THE REGENTS OF THE UNIVERSITY OF CALIFORNIA, priority 2009, dated 2016)
# Where a SMILES comes first, the peptide text is derived from it. The star is where a group is joined. Cbz = O=C(OCc1ccccc1)*; CH2F = FC*
# Tests used:
# [1] = system: PSM genes (PSMA7, PSMB4, PSMB7, PSMC1, PSMC4, PSMD1, PSMD12); experiment: mRNA levels of representative PSM genes by quantitative RT-PCR in LNCaP and HT-29 cells treated with proteasome inhibitors or MLN4924; format: cell-based, human; conditions: 10 hrs, normalized to GAPDH, DMSO set to 1
# Procedure: (§1) The human prostate cancer LNCaP and colon cancer HT29 cell lines were incubated with different proteasome inhibitors (MG132, YU101, and bortezomib) or the Nedd8 pathway inhibitor MLN4924 (Soucy et al., 2009, Nature, 458, 732-736). Prostate cancer LNCaP and colon cancer HT-29 cells were treated with the indicated concentrations of proteasome inhibitors (MG132, YU101, and Bortezomib) or the Nedd8 pathway inhibitor (MLN4924) for 10 hrs, and mRNA levels of representative PSM genes were analyzed by quantitative RT-PCR (FIGS. 1A-1C). The values were normalized to GAPDH and for each cell line the DMSO treated sample was set to 1. Error bars denote SD (n=3). […] MLN4924 works by inhibiting the Nedd8-activating enzyme, the result of which is the accumulation of cullin-RING ligase (CRL) substrates (Soucy et al., 2009).
# (§2) RNA was isolated using the RNeasy kit (Qiagen). cDNA was prepared using the Superscript III first strand synthesis kit (Invitrogen) according to the manufacturer's recommendations. Quantitative PCR (qPCR) was performed using the SYBR GreenER supermix (Invitrogen).
# cleaved caspase-3 = experiment: Immunoblot of cleaved caspase-3 in MDA-MB-231 and U2OS cells; format: cell-based, human; conditions: Nrf1-depleted cells; YU101 48 hrs (MDA-MB-231) or 24 hrs (U2OS)
# Procedure: (§3) HT29 cells were treated with either MG132 (2 μM), YU101 (100 nM) or Bortezomib (40 nM) for 1 hr after which the drugs were washed off and the cells were allowed to recover in the absence or presence of 50 μg/ml cycloheximide (CHX) (FIG. 11A). Cells were frozen at different time points as indicated and were used for proteasome activity assays as described herein. For each time point, the results are normalized to DMSO-treated control in the case of hatched lines and to CHX-treated control in the case of solid lines. Error bars denote SD (n=3). WT and Nrf1^−/− MEFs were treated with either MG132 (50 μM) or YU101 (300 nM) for an hour after which the drugs were washed off and proteasome activity was measured for cells collected at different time points as indicated (FIG. 11A). […] The results were normalized to DMSO-treated control for each cell type. Error bars denote S.E.M. (n=2). MDA-MB-231 and U2OS cells were transduced with retrovirus expressing either sh-Nrf1 or vector control, and 48 hrs later were seeded in to 96-well plates. The next day, the cells were treated with indicated concentrations of YU101 and the pan-caspase inhibitor Z-VAD-FMK, and further incubated for 72 hrs. The cell viability was then assessed using the CellTiter-Glo method (FIG. 12A). The results were normalized to DMSO-treated control which was set to 100% in each case. Error bars denote S.E.M. (n=2). […]
# proteasome = molecular target: T1, proteasome (Mus musculus, UniProt O09061+O55234); experiment: Proteasome activity recovery assay in WT and Nrf1−/− MEFs; format: cell-based; conditions: YU101 300 nM 1 hr then wash-off, single-phase exponential curve fit
# T1 construct: endogenous in cells; host or cells: WT and Nrf1-/- mouse embryonic fibroblasts, immortalized with shRNA against p19ARF
# Procedure: Cells were frozen at different time points as indicated and were used for proteasome activity assays as described herein. For each time point, the results are normalized to DMSO-treated control in the case of hatched lines and to CHX-treated control in the case of solid lines. Error bars denote SD (n=3). […] The results were normalized to DMSO-treated control for each cell type. Error bars denote S.E.M. (n=2). […] The next day, the cells were treated with indicated concentrations of YU101 and the pan-caspase inhibitor Z-VAD-FMK, and further incubated for 72 hrs. The cell viability was then assessed using the CellTiter-Glo method (FIG. 12A). The results were normalized to DMSO-treated control which was set to 100% in each case. Error bars denote S.E.M. (n=2). […] The cell lysates were used for immunoblotting to detect the levels of Nrf1 (with the antibody raised against N-terminus) and cleaved caspase-3. β-actin protein levels were used as loading control. […] The cells were then washed with PBS thrice and allowed to recover in fresh medium. At definite time points, the cells were freeze-thawed in TE buffer (20 mM Tris pH 8, 5 mM EDTA) and subsequently used for measuring proteasome activity as described previously (Demo et al., 2007).
# [2] = system: MDA-MB-231 and U2OS cells; experiment: CellTiter-Glo cell viability with YU101, sh-Nrf1 and Z-VAD-FMK; format: cell-based, human; conditions: 72 hrs
# Procedure: as §3, with “MDA-MB-231 and U2OS cells were transduced with retrovirus expressing either sh-Nrf1 or vector control, and 48 hrs later were seeded in to 96-well plates. The next day, the cells were treated with indicated concentrations of YU101 and the pan-caspase inhibitor Z-VAD-FMK, and further incubated for 72 hrs.” left out, “12A).” for “12A). The results were normalized to DMSO-treated control which was set to 100% in each case. Error bars denote S.E.M. (n=2).”
# Cells in 96-well plates were treated with different agents as required and cell viability was assessed using the Cell-Titer Glo kit (G7572; Promega) according to the protocol recommended by the manufacturer. By employing a luminescence read-out, this kit quantifies the level of ATP which is proportional to the number of viable cells.
# NQO1 = NQO1 mRNA level by quantitative RT-PCR in LNCaP and HT-29 cells; format: cell-based, human; conditions: 10 hrs, same treatment conditions
# Procedure: as §1, §2
SMILES,mRNA levels of PSM genes [1],level of cleaved caspase-3 (cleaved caspase-3),time taken to recover half of the inhibited activity (proteasome; Nrf1−/− MEFs),time taken to recover half of the inhibited activity (proteasome; WT MEFs),effect of co-treatment on sensitization to YU101 killing [2],NQO1 mRNA (Nrf2 target gene) (NQO1)
CC(=O)NC(CCc1ccccc1)C(=O)NC(CC(C)C)C(=O)NC(Cc1ccccc1)C(=O)NC(CC(C)C)C(=O)C1(C)CO1 (stereo not shown) [YU101],robustly induce mRNA levels of several PSM genes,elicited an enhanced level of cleaved caspase-3,15.96 ± 5.49 h,6.92 ± 1.64 h,–,–
COC(=O)C[C@H](NC(=O)[C@H](C)NC(=O)[C@@H](NC(=O)OCc1ccccc1)C(C)C)C(=O)CF [Z-VAD-FMK] (Cbz-Val-Ala-Asp(OMe)-CH2F),–,–,–,–,this effect was blunted,–
NS(=O)(=O)OC[C@@H]1C[C@@H](n2ccc3c(N[C@H]4CCc5ccccc54)ncnc32)C[C@@H]1O [MLN4924],failed to appreciably induce the PSM genes,–,–,–,–,"activation of its downstream target genes, as observed for NQO1"
